Where “and” joins values, the source holds several entries; their conditions need not be identical. Identical values can stand only once.
Assays:
ALS patients [1] = test: Post-hoc statistical analysis 1: blood uric acid levels in 25% improvement and non-25% improvement groups; assay type: in vivo, human; conditions: non-25% improvement group
Description: (§1) The blood uric acid levels in the 16 trial, 17 trial, and 19 trial were measured values obtained using the uricase-peroxidase method.
In the present analysis, efficacy was analyzed for placebo patients who had completed the 24-week double-blind period (cycles 1 to 6) and had at least one data point in cycle 7. To estimate the percent change in ALSFRS-R slope for transition from placebo administration (baseline to 24 weeks) to edaravone administration (24 weeks 24 to 48 weeks), a random coefficient model was applied to all available ALSFRS-R score data during this period.
A 25% improvement group meets both of the following criteria:
(1) ALSFRS-R slope % change ≥+25% (this change is defined as a clinically significant improvement (Reference 5: Amyotroph Lateral Scler 2010; 11 (1-2): 178-180)) and (2) ALSFRS-R total score at the start of cycle 7 (24 weeks)>24 points (half of the 48-point ALSFRS-R total score) (this helps avoid floor effects related to the ALSFRS-R total score that could lead to false positives in the analysis).
These criteria were used to define a 25% improvement group and a non-25% improvement group. Using a mixed model for repeated measures, the changes in uric acid levels from the start of cycle 7 (24 weeks) to cycle 12 (48 weeks) were summarized for the 25% improvement group and the non-25% improvement group. The correlation between the change in uric acid levels from 24 weeks to 48 weeks and the ALSFRS-R slope percent change was descriptively summarized using the Wilcoxon test.

ALS patients [2] = test: Post-hoc statistical analysis 2: uric acid levels from baseline to cycle 12 (16, 17 and 19 trials); assay type: in vivo, human
Source text: After a 12-week observation period, patients whose ALSFRS-R total score decreased by 1 to 4 points during that period were considered eligible for the trial. In the 16 trial, eligible patients were randomly divided into an edaravone treatment group and a placebo administration group, and patients in each group received administration for 24 weeks (cycles 1 to 6). After completing the 24-week double-blind portion of the 16 trial, patients who received edaravone (E) were randomly assigned to the 17 trial, and during a 24-week double-blind extension period (cycles 7 to 12), edaravone treatment (EE group) or placebo administration (EP group) was performed. On the other hand, all patients from the placebo (P) administration group received edaravone treatment (PE group). All patients received open-label edaravone treatment for the next 12 weeks (cycles 13 to 15).
Edaravone was administered at a dose of 60 mg by intravenous infusion over 60 minutes, once daily. The infusion was given for 14 days in the first treatment cycle, and for 10 days out of the 14-day treatment period in all subsequent cycles. A 14-day drug holiday period was provided after each treatment cycle.
Similar to the 16 trial, after a 12-week observation period, patients in the 19 trial were randomly divided into an edaravone treatment group and a placebo administration group, and patients in each group received administration for 24 weeks (cycles 1 to 6). In the 19 trial, after the double-blind treatment period, all patients received open-label edaravone treatment for an additional 24 weeks (cycles 7 to 12). Therefore, the 19 trial included an EE group and a PE group.
as §1
In order to characterize the uric acid level and ALSFRS-R total score profiles at cycle 12, efficacy was analyzed in randomized ALS patients at the start of cycle 7 and randomized ALS patients who received the medical agent at least once after the start of cycle 7.
Descriptive statistics (number of subjects, mean, standard deviation, minimum, maximum) were used to summarize the changes in uric acid levels (mg/dL) and ALSFRS-R total scores from baseline to cycle 12 for the entire population and for the Edaravone treatment group as a subgroup defined by the median baseline uric acid level (4.8 mg/dL). The median baseline uric acid level for all patients (4.8 mg/dL) was derived using the entire edaravone population, including the EE, PE, and EP groups in the 16 trial, the 17 trial, and the 19 trial.

ALS patients [3] = test: as above; assay type: in vivo, human; conditions: placebo-controlled double-blind period (cycles 1-6); edaravone group vs placebo group
ALS patients [4] = conditions: 18 trial; ALS severity of grade 3; very small number of cases; cited from earlier work
[5] = Subgroup with uric acid level baseline <4.8 mg/dL, EE group
[6] = Subgroup with uric acid level baseline <4.8 mg/dL, EP group
[7] = Subgroup with uric acid level baseline <4.8 mg/dL, PE group
[8] = Subgroup with uric acid level baseline ≥4.8 mg/dL, EE group
[9] = Subgroup with uric acid level baseline ≥4.8 mg/dL, EP group
[10] = Subgroup with uric acid level baseline ≥4.8 mg/dL, PE group

## CC1=NN(c2ccccc2)C(=O)C1 [edaravone, 3-methyl-1-phenyl-2-pyrazolin-5-one]
ALS patients [1]; ALS severity grade 3 to 5, second change section of Table 3 (n=24)
  Uric acid change from start of Cycle 7 to final administration of Cycle 12, Mean (SD): −0.40 (1.02) mg/dL
ALS patients [1]; all severities
  Uric acid change from start of Cycle 7 to final administration of Cycle 7, LS mean (SE): −0.37 mg/dL and −0.37 (0.12) mg/dL
  Uric acid change from start of Cycle 7 to final administration of Cycle 7, Mean (SD): −0.14 mg/dL and −0.14 (0.52) mg/dL
  Uric acid change from start of Cycle 7 to final administration of Cycle 12, LS mean (SE): −0.56 mg/dL and −0.56 (0.12) mg/dL
  Uric acid change from start of Cycle 7 to final administration of Cycle 12, Mean (SD): -0.22 mg/dL and −0.22 (0.81) mg/dL
  Uric acid level at final administration of Cycle 7, Mean (SD): 4.46 (1.29) mg/dL
  Uric acid level at final administration of Cycle 12, Mean (SD): 4.48 (1.29) mg/dL
ALS patients [2]; Overall, EE group
  Uric acid level change from BL to cycle 12, Mean (SD): -0.25 mg/dL
ALS patients [2]; Overall, EE group, listed as Edaravone
  Uric acid level change from BL to cycle 12, Mean (SD): −0.25 (0.86) mg/dL
ALS patients [2]; Overall, EP group
  Uric acid level change from BL to cycle 12, Mean (SD): -0.22 mg/dL
ALS patients [2]; Overall, EP group, listed as Edaravone
  Uric acid level change from BL to cycle 12, Mean (SD): −0.22 (0.77) mg/dL
ALS patients [2]; Overall, Edaravone-Edaravone (EE) group
  Uric acid level at Cycle 12, Mean (SD): 4.4 (1.36) mg/dL
ALS patients [2]; Overall, Edaravone-Placebo (EP) group
  Uric acid level at Cycle 12, Mean (SD): 4.9 (1.20) mg/dL
ALS patients [2]; Overall, PE group
  Uric acid level change from BL to cycle 12, Mean (SD): -0.37 mg/dL
ALS patients [2]; Overall, PE group, listed as Edaravone
  Uric acid level change from BL to cycle 12, Mean (SD): −0.37 (0.86) mg/dL
ALS patients [2]; Overall, Placebo-Edaravone (PE) group
  Uric acid level at Cycle 12, Mean (SD): 4.5 (1.32) mg/dL
ALS patients [2]; [5]
  Uric acid level at Cycle 12, Mean (SD): 3.6 (0.85) mg/dL
  Uric acid level change from BL to cycle 12, Mean (SD): −0.10 (0.69) mg/dL
ALS patients [2]; [6]
  Uric acid level at Cycle 12, Mean (SD): 4.1 (0.93) mg/dL
  Uric acid level change from BL to cycle 12, Mean (SD): 0.15 (0.64) mg/dL
ALS patients [2]; [7]
  Uric acid level at Cycle 12, Mean (SD): 3.6 (0.95) mg/dL
  Uric acid level change from BL to cycle 12, Mean (SD): 0.00 (0.71) mg/dL
ALS patients [2]; [8]
  Uric acid level at Cycle 12, Mean (SD): 5.4 (1.21) mg/dL
  Uric acid level change from BL to cycle 12, Mean (SD): -0.4 mg/dL
ALS patients [2]; Subgroup with uric acid level baseline ≥4.8 mg/dL, EE group, listed as Edaravone
  Uric acid level change from BL to cycle 12, Mean (SD): −0.41 (1.01) mg/dL
ALS patients [2]; [9]
  Uric acid level at Cycle 12, Mean (SD): 5.5 (1.04) mg/dL
  Uric acid level change from BL to cycle 12, Mean (SD): -0.48 mg/dL
ALS patients [2]; Subgroup with uric acid level baseline ≥4.8 mg/dL, EP group, listed as Edaravone
  Uric acid level change from BL to cycle 12, Mean (SD): −0.48 (0.77) mg/dL
ALS patients [2]; [10]
  Uric acid level at Cycle 12, Mean (SD): 5.2 (1.17) mg/dL
  Uric acid level change from BL to cycle 12, Mean (SD): -0.68 mg/dL
ALS patients [2]; Subgroup with uric acid level baseline ≥4.8 mg/dL, PE group, listed as Edaravone
  Uric acid level change from BL to cycle 12, Mean (SD): −0.68 (0.86) mg/dL
ALS patients [3]
  decrease in uric acid levels from baseline at cycle 6: smaller decrease in uric acid levels compared to the placebo group
ALS patients [4]
  change in ALSFRS-R total score compared to placebo: no statistically significant difference was observed compared to placebo

Source: patent publication US20250134863A1, “MEDICAL AGENT FOR TREATING OR SUPPRESSING PROGRESSION OF AMYOTROPHIC LATERAL SCLEROSIS” (MITSUBISHI TANABE PHARMA CORPORATION, priority 2022, published 2025)
